Like-named read-outs stand apart in the source and are kept apart here.
Columns and labels:
[1] = test system: Primary human gingival fibroblasts
Protocol: (§1) The radioactivity of the samples was measured on a Tri-Carb 2800 TR (3-counter (PerkinElmer, USA) in an ULTIMA GOLD LLT scintillator (Perkin Elmer, USA). An aliquot of the sample (0.1 mL) was thoroughly mixed with the scintillator (0.9 mL) and the radioactivity was measured within no more than 2 h after the mixture was prepared.
(§2) Cells were cultured on the surface of 48-well polystyrene plates.
(§3) Primary human gingival fibroblasts and cervical adenocarcinoma HeLa cells were used as cell cultures. Cells were cultured in IMDM culture medium supplemented with 10% fetal bovine serum and an antibiotic (penicillin and streptomycin) in an atmosphere of 6% CO2, at 37° C.
(§4) During the experiment, the cells were placed into 48-well polystyrene plates with a well diameter of 1 cm, in the amount of 12 thousand cells per well, in triplicate for each type of sample (in 0.5 ml of culture medium). […] The cell suspension was sedimented by centrifugation at 800 g for 10 min, and aliquots were taken from the trypsin supernatant. The cell precipitation was resuspended in 220 μl of saline and 2 aliquots of 100 μl were taken to measure the radioactivity of the samples.

[2] = test system: HeLa cervical adenocarcinoma cells
Protocol: as §1, §2, §3, §4

[3] = in water, alcohol; cited from earlier work
[4] = 0.074% formaldehyde diluted in culture medium, compared with 0.11% formaldehyde solution
[5] = 0.074% formaldehyde in saline, compared with incubation in 0.11% formaldehyde solution
[6] = incubation in culture medium, added formaldehyde 0.00056%
[7] = incubation in culture medium, added formaldehyde 0.0028%
[8] = incubation in culture medium, added formaldehyde 0.014%
[9] = incubation in culture medium, added formaldehyde 0.074%
[10] = incubation in culture medium, added formaldehyde 0.11%
[11] = incubation in saline, added formaldehyde 0.00056%
[12] = incubation in saline, added formaldehyde 0.0028%
[13] = incubation in saline, added formaldehyde 0.014%
[14] = incubation in saline, added formaldehyde 0.074%
[15] = incubation in saline, added formaldehyde 0.11%

C=O [formaldehyde]
activation of the production of endogenous formaldehyde [1, 4]: 20.6% | activation of the production of endogenous formaldehyde [1, 5]: 18.4% | Formaldehyde accumulation, Cells, % of what added [1, 6]: 0.25 ± 0.02 % of what added | Formaldehyde accumulation, Trypsin eluate, % of what added [1, 6]: 0.23 ± 0.03 % of what added | Formaldehyde accumulation, Cells, % of what added [1, 7]: 0.55 ± 0.07 % of what added | Formaldehyde accumulation, Trypsin eluate, % of what added [1, 7]: 0.56 ± 0.16 % of what added | Formaldehyde accumulation, Cells, % of what added [1, 8]: 1.25 ± 0.13 % of what added | Formaldehyde accumulation, Trypsin eluate, % of what added [1, 8]: 1.36 ± 0.15 % of what added | Formaldehyde accumulation, Cells, % of what added [1, 9]: 1.7 ± 0.11 % of what added | Formaldehyde accumulation, Trypsin eluate, % of what added [1, 9]: 2.33 ± 0.34 % of what added | Formaldehyde accumulation, Cells, % of what added [1, 10]: 1.35 ± 0.09 % of what added | Formaldehyde accumulation, Trypsin eluate, % of what added [1, 10]: 1.77 ± 0.16 % of what added | Formaldehyde accumulation, Cells, % of what added [1, 11]: 0.53 ± 0.04 % of what added | Formaldehyde accumulation, Trypsin eluate, % of what added [1, 11]: 0.45 ± 0.03 % of what added | Formaldehyde accumulation, Cells, % of what added [1, 12]: 1.26 ± 0.11 % of what added | Formaldehyde accumulation, Trypsin eluate, % of what added [1, 12]: 1.73 ± 0.23 % of what added | Formaldehyde accumulation, Cells, % of what added [1, 13]: 3.11 ± 0.27 % of what added | Formaldehyde accumulation, Trypsin eluate, % of what added [1, 13]: 3.41 ± 0.44 % of what added | Formaldehyde accumulation, Cells, % of what added [1, 14]: 2.12 ± 0.33 % of what added | Formaldehyde accumulation, Trypsin eluate, % of what added [1, 14]: 5.16 ± 0.85 % of what added | Formaldehyde accumulation, Cells, % of what added [1, 15]: 1.73 ± 0.23 % of what added | Formaldehyde accumulation, Trypsin eluate, % of what added [1, 15]: 3.71 ± 0.45 % of what added | activation of the production of endogenous formaldehyde [2, 4]: 30.2% | activation of the production of endogenous formaldehyde [2, 5]: 32% | Formaldehyde accumulation, Cells, % of what added [2, 6]: 0.28 ± 0.03 % of what added | Formaldehyde accumulation, Trypsin eluate, % of what added [2, 6]: 0.20 ± 0.02 % of what added | Formaldehyde accumulation, Cells, % of what added [2, 7]: 0.64 ± 0.13 % of what added | Formaldehyde accumulation, Trypsin eluate, % of what added [2, 7]: 0.45 ± 0.06 % of what added | Formaldehyde accumulation, Cells, % of what added [2, 8]: 1.52 ± 0.09 % of what added | Formaldehyde accumulation, Trypsin eluate, % of what added [2, 8]: 1.92 ± 0.11 % of what added | Formaldehyde accumulation, Cells, % of what added [2, 9]: 2.75 ± 0.18 % of what added | Formaldehyde accumulation, Trypsin eluate, % of what added [2, 9]: 2.54 ± 0.14 % of what added | Formaldehyde accumulation, Cells, % of what added [2, 10]: 1.92 ± 0.16 % of what added | Formaldehyde accumulation, Trypsin eluate, % of what added [2, 10]: 1.83 ± 0.12 % of what added | Formaldehyde accumulation, Cells, % of what added [2, 11]: 0.62 ± 0.04 % of what added | Formaldehyde accumulation, Trypsin eluate, % of what added [2, 11]: 0.57 ± 0.04 % of what added | Formaldehyde accumulation, Cells, % of what added [2, 12]: 1.34 ± 0.05 % of what added | Formaldehyde accumulation, Trypsin eluate, % of what added [2, 12]: 2.14 ± 0.08 % of what added | Formaldehyde accumulation, Cells, % of what added [2, 13]: 2.65 ± 0.11 % of what added | Formaldehyde accumulation, Trypsin eluate, % of what added [2, 13]: 3.44 ± 0.19 % of what added | Formaldehyde accumulation, Cells, % of what added [2, 14]: 2.75 ± 0.18 % of what added | Formaldehyde accumulation, Trypsin eluate, % of what added [2, 14]: 3.32 ± 0.27 % of what added | Formaldehyde accumulation, Cells, % of what added [2, 15]: 1.85 ± 0.25 % of what added | Formaldehyde accumulation, Trypsin eluate, % of what added [2, 15]: 2.41 ± 0.11 % of what added | solubility [3]: well dissolve in water, alcohol

From patent US20230090982A1, “DRUG FOR TREATING C[…] […] […] C” (priority 2020, published 2023)
